Test results: PubChem BioAssay (NCI)
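The concentration for 50% growth inhibition is given as GI50. TGI is the concentration that stops growth completely.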

Key:
Assay in all cases: DTP human tumour cell line panel, 384-well format
BT-549 breast = tested on: BT-549 breast
786-0 renal = tested on: 786-0 renal
HS 578T breast = tested on: HS 578T breast
MCF7 breast = tested on: MCF7 breast
RXF 393 renal = tested on: RXF 393 renal
OVCAR-3 ovarian = tested on: OVCAR-3 ovarian
SK-OV-3 ovarian = tested on: SK-OV-3 ovarian
MDA-MB-231 breast = tested on: MDA-MB-231 breast
RPMI-8226 leukemia = tested on: RPMI-8226 leukemia
SR leukemia = tested on: SR leukemia
SK-MEL-28 melanoma = tested on: SK-MEL-28 melanoma
SN12C renal = tested on: SN12C renal
K-562 leukemia = tested on: K-562 leukemia
ACHN renal = tested on: ACHN renal
HT29 colon = tested on: HT29 colon
NCI/ADR-RES ovarian = tested on: NCI/ADR-RES ovarian
M14 melanoma = tested on: M14 melanoma
PC-3 prostate = tested on: PC-3 prostate
A549 NSCLC = tested on: A549 NSCLC
NCI-H23 lung = tested on: NCI-H23 lung
HCT-116 colon = tested on: HCT-116 colon
HCC-2998 colon = tested on: HCC-2998 colon
HCT-15 colon = tested on: HCT-15 colon
MDA-MB-435 melanoma = tested on: MDA-MB-435 melanoma
MALME-3M melanoma = tested on: MALME-3M melanoma
SW-620 colon = tested on: SW-620 colon
SNB-75 CNS = tested on: SNB-75 CNS
MDA-MB-468 breast = tested on: MDA-MB-468 breast
SF-295 CNS = tested on: SF-295 CNS
SF-539 CNS = tested on: SF-539 CNS
SK-MEL-2 melanoma = tested on: SK-MEL-2 melanoma
OVCAR-4 ovarian = tested on: OVCAR-4 ovarian
A498 renal = tested on: A498 renal
NCI-H522 lung = tested on: NCI-H522 lung
OVCAR-8 ovarian = tested on: OVCAR-8 ovarian
COLO 205 colon = tested on: COLO 205 colon
TK-10 renal = tested on: TK-10 renal
LOX IMVI melanoma = tested on: LOX IMVI melanoma
MOLT-4 leukemia = tested on: MOLT-4 leukemia
HL-60(TB) leukemia = tested on: HL-60(TB) leukemia
NCI-H226 lung = tested on: NCI-H226 lung
IGROV1 ovarian = tested on: IGROV1 ovarian
SNB-19 CNS = tested on: SNB-19 CNS
NCI-H460 NSCLC = tested on: NCI-H460 NSCLC
UO-31 renal = tested on: UO-31 renal
KM12 colon = tested on: KM12 colon
DU-145 prostate = tested on: DU-145 prostate

## CC(C)C[C@H](NC(=O)[C@H](Cc1ccccc1)NC(=O)c1cnccn1)B(O)O
BT-549 breast
  GI50: < 10 nM
  TGI: < 10 nM
786-0 renal
  GI50: < 10 nM
  TGI: < 11.3 nM
HS 578T breast
  GI50: < 10 nM
  TGI: < 10 nM
MCF7 breast
  GI50: < 10 nM
  TGI: 13.9 nM
RXF 393 renal
  GI50: < 10 nM
  TGI: < 10 nM
OVCAR-3 ovarian
  GI50: < 10 nM
  TGI: < 10 nM
SK-OV-3 ovarian
  GI50: < 10 nM
  TGI: 30.3 nM
MDA-MB-231 breast
  GI50: < 10 nM
  TGI: < 10 nM
RPMI-8226 leukemia
  GI50: < 10 nM
  TGI: < 10 nM
SR leukemia
  GI50: < 10 nM
  TGI: < 10 nM
SK-MEL-28 melanoma
  GI50: < 10 nM
  TGI: < 10 nM
SN12C renal
  GI50: < 10.8 nM
  TGI: 18.9 nM
K-562 leukemia
  GI50: < 10 nM
  TGI: < 10 nM
ACHN renal
  GI50: < 10 nM
  TGI: < 10 nM
HT29 colon
  GI50: < 10 nM
  TGI: < 10 nM
NCI/ADR-RES ovarian
  GI50: 32.1 nM
  TGI: 92.6 nM
M14 melanoma
  GI50: < 10 nM
  TGI: < 10 nM
PC-3 prostate
  GI50: < 10 nM
  TGI: < 13.7 nM
A549 NSCLC
  GI50: < 10 nM
  TGI: 62 nM
NCI-H23 lung
  GI50: < 10 nM
  TGI: < 10 nM
HCT-116 colon
  GI50: < 10 nM
  TGI: < 10 nM
HCC-2998 colon
  GI50: < 11.8 nM
  TGI: < 16.5 nM
HCT-15 colon
  GI50: < 10 nM
  TGI: < 13.6 nM
MDA-MB-435 melanoma
  GI50: < 10 nM
  TGI: < 10 nM
MALME-3M melanoma
  GI50: < 10 nM
  TGI: < 10 nM
SW-620 colon
  GI50: < 10 nM
  TGI: < 10 nM
SNB-75 CNS
  GI50: < 10 nM
  TGI: < 10 nM
MDA-MB-468 breast
  GI50: < 10 nM
  TGI: < 10 nM
SF-295 CNS
  GI50: < 10 nM
  TGI: < 10 nM
SF-539 CNS
  GI50: < 10 nM
  TGI: < 10 nM
SK-MEL-2 melanoma
  GI50: < 10 nM
  TGI: < 10 nM
OVCAR-4 ovarian
  GI50: < 10 nM
  TGI: < 10 nM
A498 renal
  GI50: < 10 nM
  TGI: < 12.4 nM
NCI-H522 lung
  GI50: < 10 nM
  TGI: < 10 nM
OVCAR-8 ovarian
  GI50: < 11.1 nM
  TGI: < 15.8 nM
COLO 205 colon
  GI50: < 10 nM
  TGI: 54 nM
TK-10 renal
  GI50: < 10 nM
  TGI: < 10 nM
LOX IMVI melanoma
  GI50: < 10 nM
  TGI: 15.9 nM
MOLT-4 leukemia
  GI50: < 10 nM
  TGI: < 10 nM
HL-60(TB) leukemia
  GI50: < 10 nM
  TGI: < 10 nM
NCI-H226 lung
  GI50: < 10 nM
  TGI: < 10 nM
IGROV1 ovarian
  GI50: < 11 nM
  TGI: < 16 nM
SNB-19 CNS
  GI50: < 10 nM
  TGI: < 15.8 nM
NCI-H460 NSCLC
  GI50: < 13 nM
  TGI: 19.9 nM
UO-31 renal
  GI50: < 10 nM
  TGI: < 10 nM
KM12 colon
  GI50: < 10 nM
  TGI: < 12.9 nM
DU-145 prostate
  GI50: < 10 nM
  TGI: < 13.8 nM
